Source: patent US20150208649A1, “NOVEL COMPOSITIONS COMPRISING P-HYDROXYBENZYLAMINE” (DSM IP ASSETS B.V., priority 2012, published 2015)
≈ marks a conversion by molar mass, not a printed value. One block for each compound: values may come before it.

Columns and labels:
Test in all cases: MIC, agar dilution method according to DIN 58 940
Format in all cases: cell-based
[1] = tested on: Aspergillus brasiliensis (A. brasiliensis) ATCC 16404; settings: for MIC mix: 78 h; for ratio [MIC (single)/(MIC (mixture)]): >1 indicates a synergistic effect; for MIC: Aspergillus brasiliensis, ATCC16404, single compound
Method: (§1) The antimicrobial activity was assessed by determination of the Minimum Inhibitory Concentration (MIC) using the agar dilution method according to DIN 58 940 at the Labor L+SAG, D-Bad Bocklet-Grossenbrach.
(§2) Culture plates with a diameter of 5.5 cm were prepared with fresh, kept liquid (50° C.) Mueller-Hinton Agar (double concentrated, Merck 1.05437)/aqua purificata comprising the compound/compound mixtures in the concentrations indicated in Table 1 according to standard methods. After solidifying and drying (about 1 h at 36° C.), the culture plates were inoculated with 1 μl of a suspension of the respective microorganism with the colony forming unit as outlined in table 1. The inoculated plates were then incubated at 36° C. The MIC's (i.e. the concentrations where still no growth could be observed) were determined after 18 h for E. coli, P. aeruginosa and S. aureus; after 48 h for P. acnes and after 78 h for A. brasiliensis and C. albicans. Per sample two culture plates were prepared. As control incubated and non-incubated cultures were used.
(§3) The suspensions of the microorganisms No. 1-4 were prepared by homogeneous suspension of 3-5 colonies of the same morphology in physiological NaCl-solution. The suspensions were adjusted such, that the haze corresponded to the Mac Farland standard 1.0 (about 3.0*10^8 KBE*/ml). For the preparation of the suspensions of the microorganisms 5 and 6, the microorganisms have been taken with a sterile swab and diluted in an amount of physiological NaCl solution such, that the haze corresponded to the Mac Farland standard 1.0. Afterwards the suspensions of the microorganisms 1 and 3-6 have been further diluted with physiological NaCl-solution in a ratio of 1:10. The colony count was determined using a spiral plater system (see table 2).

[2] = tested on: Candida albicans (C. albicans) ATCC 10231; settings: for MIC mix: 78 h; for ratio [MIC (single)/(MIC (mixture)]): >1 indicates a synergistic effect; for MIC: Candida albicans, ATCC10231, single compound
Method: as §1, §2, §3

[3] = tested on: Escherichia coli (E. coli) ATCC 8739; settings: for MIC mix: 18 h; for ratio [MIC (single)/(MIC (mixture)]): >1 indicates a synergistic effect; for MIC: Escherichia coli, ATCC8739, single compound
Method: as §1, §2, §3

[4] = tested on: Propionibacterium acnes (P. acnes) ATCC 11828; settings: for MIC: Cutibacterium acnes, ATCC11828, single compound; for MIC mix: 48 h; for ratio [MIC (single)/(MIC (mixture)]): >1 indicates a synergistic effect
Method: as §1, §2, §3

[5] = tested on: Pseudomonas aeruginosa (P. aeruginosa) ATCC 9027; settings: for MIC mix: 18 h; for ratio [MIC (single)/(MIC (mixture)]): >1 indicates a synergistic effect; for MIC: Pseudomonas aeruginosa, ATCC9027, single compound
Method: as §1, §2, §3

[6] = tested on: Staphylococcus aureus (S. aureus) ATCC 6538; settings: for MIC mix: 18 h; for ratio [MIC (single)/(MIC (mixture)]): >1 indicates a synergistic effect; for MIC: Staphylococcus aureus, ATCC6538, single compound
Method: as §1, §2, §3

[7] = concentration of the component in mixture pHBA/MI
[8] = single compound, 78 h at 36° C.
[9] = single compound, 18 h at 36° C.
[10] = concentration of the component in mixture pHBA/MP
[11] = concentration of the component in mixture pHBA/PE

Structure (SMILES): Cn1sccc1=O [MI, Methylisothiazolinone, reference compound]
- MIC mix [1, 7]: 20 µg/mL (≈ 0.174 mM)
- ratio [MIC (single)/(MIC (mixture)]) ([1]; mixture pHBA/MI): 1.50
- MIC single [1, 8]: 30 µg/mL (≈ 0.261 mM)
- MIC mix [2, 7]: 20 µg/mL (≈ 0.174 mM)
- ratio [MIC (single)/(MIC (mixture)]) ([2]; mixture pHBA/MI): 1.50
- MIC single [2, 8]: 30 µg/mL (≈ 0.261 mM)
- MIC mix [3, 7]: 20 µg/mL (≈ 0.174 mM)
- ratio [MIC (single)/(MIC (mixture)]) ([3]; mixture pHBA/MI): 1.00
- MIC single [3, 9]: 20 µg/mL (≈ 0.174 mM)
- MIC single ([4]; single compound, 48 h at 36° C.): 30 µg/mL (≈ 0.261 mM)
- MIC mix [5, 7]: <10 µg/mL
- ratio [MIC (single)/(MIC (mixture)]) ([5]; mixture pHBA/MI): >100
- MIC single [5, 9]: 40 µg/mL (≈ 0.347 mM)
- MIC mix [6, 7]: 40 µg/mL (≈ 0.347 mM)
- ratio [MIC (single)/(MIC (mixture)]) ([6]; mixture pHBA/MI): 1.75
- MIC single [6, 9]: 70 µg/mL (≈ 0.608 mM)

- MIC ([1]; 78 h at 36° C.): 5270 µg/mL (≈ 42.8 mM)
- MIC mix [1, 7]: 980 µg/mL (≈ 7.96 mM)
- MIC mix [1, 10]: 1050 µg/mL (≈ 8.53 mM)
- MIC mix [1, 11]: 2340 µg/mL (≈ 19 mM)
- ratio [MIC (single)/(MIC (mixture)]) ([1]; mixture pHBA/MI): 5.38
- ratio [MIC (single)/(MIC (mixture)]) ([1]; mixture pHBA/MP): 5.02
- ratio [MIC (single)/(MIC (mixture)]) ([1]; mixture pHBA/PE): 2.25
- MIC ([2]; 78 h at 36° C.): 5270 µg/mL (≈ 42.8 mM)
- MIC mix [2, 7]: 980 µg/mL (≈ 7.96 mM)
- MIC mix [2, 10]: 1580 µg/mL (≈ 12.8 mM)
- MIC mix [2, 11]: 2340 µg/mL (≈ 19 mM)
- ratio [MIC (single)/(MIC (mixture)]) ([2]; mixture pHBA/MI): 5.38
- ratio [MIC (single)/(MIC (mixture)]) ([2]; mixture pHBA/MP): 3.34
- ratio [MIC (single)/(MIC (mixture)]) ([2]; mixture pHBA/PE): 2.25
- MIC ([3]; 18 h at 36° C.): 5270 µg/mL (≈ 42.8 mM)
- MIC mix [3, 7]: 980 µg/mL (≈ 7.96 mM)
- MIC mix [3, 10]: 1580 µg/mL (≈ 12.8 mM)
- MIC mix [3, 11]: 3510 µg/mL (≈ 28.5 mM)
- ratio [MIC (single)/(MIC (mixture)]) ([3]; mixture pHBA/MI): 5.38
- ratio [MIC (single)/(MIC (mixture)]) ([3]; mixture pHBA/MP): 3.34
- ratio [MIC (single)/(MIC (mixture)]) ([3]; mixture pHBA/PE): 1.50
- MIC ([4]; 48 h at 36° C.): 7900 µg/mL (≈ 64.1 mM)
- MIC mix [4, 7]: 650 µg/mL (≈ 5.28 mM)
- MIC mix [4, 10]: 3560 µg/mL (≈ 28.9 mM)
- MIC mix [4, 11]: 5270 µg/mL (≈ 42.8 mM)
- ratio [MIC (single)/(MIC (mixture)]) ([4]; mixture pHBA/MI): 12.15
- ratio [MIC (single)/(MIC (mixture)]) ([4]; mixture pHBA/MP): 2.22
- ratio [MIC (single)/(MIC (mixture)]) ([4]; mixture pHBA/PE): 1.50
- MIC ([5]; 18 h at 36° C.): 5270 µg/mL (≈ 42.8 mM)
- MIC mix [5, 7]: 650 µg/mL (≈ 5.28 mM)
- MIC mix [5, 10]: 2400 µg/mL (≈ 19.5 mM)
- MIC mix [5, 11]: 3510 µg/mL (≈ 28.5 mM)
- ratio [MIC (single)/(MIC (mixture)]) ([5]; mixture pHBA/MI): 8.11
- ratio [MIC (single)/(MIC (mixture)]) ([5]; mixture pHBA/MP): 2.20
- ratio [MIC (single)/(MIC (mixture)]) ([5]; mixture pHBA/PE): 1.50
- MIC ([6]; 18 h at 36° C.): 5270 µg/mL (≈ 42.8 mM)
- MIC mix [6, 7]: 2200 µg/mL (≈ 17.9 mM)
- MIC mix [6, 10]: 3560 µg/mL (≈ 28.9 mM)
- MIC mix [6, 11]: 7900 µg/mL (≈ 64.1 mM)
- ratio [MIC (single)/(MIC (mixture)]) ([6]; mixture pHBA/MI): 2.4
- ratio [MIC (single)/(MIC (mixture)]) ([6]; mixture pHBA/MP): 1.48
- ratio [MIC (single)/(MIC (mixture)]) ([6]; mixture pHBA/PE): 0.67
Structure (SMILES): NCc1ccc(O)cc1 [pHBA, p-Hydroxybenzylamine]

- MIC ([1]; 78 h at 36° C.): 390 µg/mL (≈ 2.56 mM)
- MIC mix [1, 10]: 260 µg/mL (≈ 1.71 mM)
- ratio [MIC (single)/(MIC (mixture)]) ([1]; mixture pHBA/MP): 1.50
- MIC ([2]; 78 h at 36° C.): 590 µg/mL (≈ 3.88 mM)
- MIC mix [2, 10]: 390 µg/mL (≈ 2.56 mM)
- ratio [MIC (single)/(MIC (mixture)]) ([2]; mixture pHBA/MP): 1.51
- MIC ([3]; 18 h at 36° C.): 890 µg/mL (≈ 5.85 mM)
- MIC mix [3, 10]: 390 µg/mL (≈ 2.56 mM)
- ratio [MIC (single)/(MIC (mixture)]) ([3]; mixture pHBA/MP): 2.28
- MIC ([4]; 48 h at 36° C.): 1330 µg/mL (≈ 8.74 mM)
- MIC mix [4, 7]: <10 µg/mL
- MIC mix [4, 10]: 890 µg/mL (≈ 5.85 mM)
- ratio [MIC (single)/(MIC (mixture)]) ([4]; mixture pHBA/MI): >100
- ratio [MIC (single)/(MIC (mixture)]) ([4]; mixture pHBA/MP): 1.49
- MIC ([5]; 18 h at 36° C.): 2000 µg/mL (≈ 13.1 mM)
- MIC mix [5, 10]: 590 µg/mL (≈ 3.88 mM)
- ratio [MIC (single)/(MIC (mixture)]) ([5]; mixture pHBA/MP): 3.39
- MIC ([6]; 18 h at 36° C.): 2000 µg/mL (≈ 13.1 mM)
- MIC mix [6, 10]: 890 µg/mL (≈ 5.85 mM)
- ratio [MIC (single)/(MIC (mixture)]) ([6]; mixture pHBA/MP): 2.25
Structure (SMILES): COC(=O)c1ccc(O)cc1 [MP, Methylparabene, reference compound]
